Experimental data published in patent US12180139B2, “Method for preparing aminoalkanoic acid derivative containing biphenyl group” (AMTIXBIO CO., LTD., priority 2019, dated 2024).

What was measured:
C. neoformans = conditions: RPMI1640 broth, 35° C., 72 hours, visual reading; expressed as a range value
Method: (§3) An in vitro antifungal susceptibility test was performed in accordance with the US Clinical and Laboratory Standards Institute (CLSI) guidelines to measure the degree of antifungal activity of the compounds synthesized in the Preparation Examples against opportunistic pathogenic fungi. […] The MIC value (μg/ ? ) is expressed as a range value. Specifically, Candida species and Cryptococcus neoformans were incubated in a Sabouraud dextrose agar (SDA) (Sigma-Aldrich) solid medium for 24 and 48 hours, respectively to obtain single colonies. The obtained single colonies were suspended in 0.85% physiological saline to prepare fungal cell suspension (1 to 5×10^6 cells/ ? ). Fungal cells 2000-fold diluted in RPMI1640 broth (Sigma-Aldrich) were seeded on 96-well plates (5×10^2 to 2.5×10^3 cells/ ? , 195 ? /well). Serial two-fold dilutions (128, 64, 32, 16, 8, 4, 2, 1, and 0.5 μg/ ? ) of compounds were prepared by diluting the compounds synthesized according to the above preparation examples. Then, 5 ? from each dilution was added to the well of the 96-well plate containing fungal cell suspension to give a final suspension of 200 ? per well. […] As a positive control, amphotericin B (AMB), which is highly toxic to the human body but is known as a representative antifungal agent, was used.

C. albicans = conditions: RPMI1640 broth, 35° C., 48 hours, visual reading; expressed as a range value
Method: as §3

A. fumigatus = conditions: visual reading; expressed as a range value
interleukin 6 (IL-6) = conditions: RAW264.7 cells, compound 8 μg/mL 1 hour, then LPS 1 μg/mL 24 hours; relative to LPS without compound
Method: The anti-inflammatory effects of the compounds of the present invention were evaluated using RAW264.7 cells which were stimulated to secrete interleukin 6 (IL-6). Specifically, RAW264.7 cells (obtained from Korean Cell Line Bank), mouse macrophages, were inoculated into a 12-well plate at 5×10^5 cells/well and incubated at 37° C. for 16 to 24 hours. The compounds of the present invention were added to the cell culture medium containing RAW264.7 cells incubated as above at a final concentration of 0 or 8 μg/ ? , and then incubated at 37° C. for 1 hour. Next, lipopolysaccharide (LPS, Sigma-Aldrich, USA) was further added to the medium at a final concentration of 1 μg/ ? , and the medium was incubated at 37° C. for 24 hours to induce IL-6 expression. Thereafter, IL-6 levels produced by the RAW264.7 cells were measured using an ELISA kit (Komabiotech Inc. Korea) according to the manufacturer's instructions. In Table 9, IL6 levels were expressed as a relative percentage (%) between LPS-induced IL6 levels after the treatment with the compound of the present invention and LPS-induced IL6 levels without the treatment of the compound of the present invention.

C. glabrata = conditions: RPMI1640 broth, 35° C., 48 hours, visual reading; expressed as a range value
Method: as §3

S. aureus (+) = conditions: MHB liquid medium, 37° C., 24 hours
Method: (§1) The antibacterial activities against Gram-positive bacteria, Gram-negative bacteria or multi-drug resistant bacteria were evaluated for the compounds of the present invention. The MIC test was conducted in accordance CLSI guidelines. E. coli(−), P. aeruginosa(−), and S. enterica(−) were used as Gram-negative bacteria, B. cereus(+), B. subtilis(+), B. coagulans(+), L. monocytogenes(+), M. luteus(+), P. acnes(+), S. epidermidis(+), and S. aureus(+) were used as Gram-positive bacteria. Methicillin-resistant Staphylococcus aureus (MRSA) was used as multi-drug resistant bacteria. The bacterial cells were incubated until the OD600 of the single colonies reached 0.1. […] Subsequently, bacterial cells were incubated at 37° C. for 24 hours, and then the MICs (μg/ ? ) were determined by visual reading and optical density detection at 600 nm (OD600). As a positive control, Nofloxacin and Vancomycin were used.

S. epidermidis (+) = conditions: MHB liquid medium, 37° C., 24 hours
Method: as §1

MRSA = experiment: Antibacterial MIC test (CLSI); format: cell-based, Methicillin-resistant Staphylococcus aureus; conditions: MHB liquid medium, 37° C., 24 hours
Method: (§2) The MIC test was conducted in accordance CLSI guidelines. […] As a positive control, Nofloxacin and Vancomycin were used.

B. cereus (+) = experiment: Antibacterial MIC test (CLSI); format: cell-based; conditions: MHB liquid medium, 37° C., 24 hours
Method: as §2

B. coagulans (+) = experiment: Antibacterial MIC test (CLSI); format: cell-based; conditions: MHB liquid medium, 37° C., 24 hours
Method: as §2

L. monocytogenes (+) = experiment: Antibacterial MIC test (CLSI); format: cell-based; conditions: MHB liquid medium, 37° C., 24 hours
Method: as §2

E. coli (−) = experiment: Antibacterial MIC test (CLSI); format: cell-based; conditions: MHB liquid medium, 37° C., 24 hours
Method: as §2

M. luteus (+) = experiment: Antibacterial MIC test (CLSI); format: cell-based; conditions: MHB liquid medium, 37° C., 24 hours
Method: as §2

P. acnes (+) = experiment: Antibacterial MIC test (CLSI); format: cell-based; conditions: MHB liquid medium, 37° C., 24 hours
Method: as §2

S. aureus enterica (−) = experiment: Antibacterial MIC test (CLSI); format: cell-based; conditions: MHB liquid medium, 37° C., 24 hours
Method: as §2

B. subtilis (+) = experiment: Antibacterial MIC test (CLSI); format: cell-based; conditions: MHB liquid medium, 37° C., 24 hours
Method: as §2

Row | SMILES | MIC (μg/mL) C. neoformans (C. neoformans) | MIC (μg/mL) C. albicans (C. albicans) | MIC (μg/mL) A. fumigatus (A. fumigatus) | Relative IL-6 levels (%) (interleukin 6 (IL-6)) | MIC (μg/mL) C. glabrata (C. glabrata) | MIC S. aureus (+) (S. aureus (+)) | MIC S. epidermidis (+) (S. epidermidis (+)) | MIC MRSA (MRSA) | MIC B. cereus (+) (B. cereus (+)) | MIC B. coagulans (+) (B. coagulans (+)) | MIC L. monocytogenes (+) (L. monocytogenes (+)) | MIC E. coli (−) (E. coli (−)) | MIC M. luteus (+) (M. luteus (+)) | MIC P. acnes (+) (P. acnes (+)) | MIC S. aureus enterica (−) (S. aureus enterica (−)) | MIC B. subtilis (+) (B. subtilis (+))
1 | CCCC(N)C(=O)Nc1ccc(-c2ccc(OC(F)(F)F)cc2)cc1.Cl (racemic) [Compound 32, (R)/(S)-2-amino-N-(4′-(trifluoromethoxy)-[1,1′-biphenyl]-4-yl)pentanamide hydrochloride] | 2~8 μg/mL | 4~16 μg/mL | 4~16 μg/mL | 16% | 4~16 μg/mL | – | – | – | – | – | – | – | – | – | – | –
2 | CCCC(C(=O)Nc1ccc(-c2ccc(Cl)c(Cl)c2)cc1)N(C)C (racemic) [Compound 36, (R)/(S)-N-(3′,4′-dichloro-[1,1′-biphenyl]-4-yl)-2-(dimethylamino)pentanamide] | 2~8 μg/mL | 4~16 μg/mL | 4~16 μg/mL | 9% | 4~16 μg/mL | – | – | – | – | – | – | – | – | – | – | –
3 | CCCC(NC)C(=O)NCCc1ccc(-c2ccc(Cl)c(Cl)c2)cc1.Cl (racemic) [Compound 84, (R)/(S)-N-(2-(3′,4′-dichloro-[1,1′-biphenyl]-4-yl)ethyl)-2-(methylamino)pentanamide hydrochloride] | 2~8 μg/mL | 4~1 μg/mL | 4~1 μg/mL | – | 4~1 μg/mL | 16 µg/mL | 16 µg/mL | 16 µg/mL | 32 µg/mL | 8 µg/mL | 16 µg/mL | >32 µg/mL | 16 µg/mL | 16 µg/mL | >32 µg/mL | 16 µg/mL
4 | CCCCC(NC)C(=O)NCCc1ccc(-c2ccc(Cl)c(Cl)c2)cc1.Cl (racemic) [Compound 85, (R)/(S)-N-(2-(3′,4′-dichloro-[1,1′-biphenyl]-4-yl)ethyl)-2-(methylamino)hexanamide hydrochloride] | 0.5~4 μg/mL | 0.5~4 μg/mL | 0.5~4 μg/mL | – | 0.5~4 μg/mL | 16 µg/mL | 16 µg/mL | 16 µg/mL | 32 µg/mL | 4 µg/mL | 16 µg/mL | >32 µg/mL | 8 µg/mL | 16 µg/mL | >32 µg/mL | 16 µg/mL
5 | CCC(NC)C(=O)NCCc1ccc(-c2ccc(C(F)(F)F)cc2)cc1.Cl (racemic) [Compound 86, (R)/(S)-2-(methylamino)-N-(2-(4′-(trifluoromethyl)-[1,1′-biphenyl]-4-yl)ethyl)butanamide hydrochloride] | 8~32 μg/mL | 16~64 μg/mL | 16~64 μg/mL | – | 16~64 μg/mL | 32 µg/mL | 16 µg/mL | 32 µg/mL | 64 µg/mL | <4 µg/mL | 16 µg/mL | 32 µg/mL | 16 µg/mL | 16 µg/mL | 64 µg/mL | 32 µg/mL
6 | CCCCC(NC)C(=O)NCCc1ccc(-c2ccc(C(F)(F)F)cc2)cc1.Cl (racemic) [Compound 88, (R)/(S)-2-(methylamino)-N-(2-(4′-(trifluoromethyl)-[1,1′-biphenyl]-4-yl)ethyl)hexanamide hydrochloride] | 2~8 μg/mL | 4~16 μg/mL | 4~16 μg/mL | – | 4~16 μg/mL | 8 µg/mL | 8 µg/mL | 8 µg/mL | >64 µg/mL | <4 µg/mL | <4 µg/mL | 8 µg/mL | >64 µg/mL | <4 µg/mL | >64 µg/mL | 32 µg/mL
7 | CCC(NC)C(=O)NCCc1ccc(-c2ccc(OC(F)(F)F)cc2)cc1.Cl (racemic) [Compound 89, (R)/(S)-2-(methylamino)-N-(2-(4′-(trifluoromethoxy)-[1,1′-biphenyl]-4-yl)ethyl)butanamide hydrochloride] | 8~32 μg/mL | 8~32 μg/mL | 8~32 μg/mL | – | 8~32 μg/mL | 32 µg/mL | 16 µg/mL | 32 µg/mL | >64 µg/mL | <4 µg/mL | 16 µg/mL | 16 µg/mL | 16 µg/mL | 16 µg/mL | 32 µg/mL | 16 µg/mL
8 | CCCCC(NC)C(=O)NCCc1ccc(-c2ccc(OC(F)(F)F)cc2)cc1.Cl (racemic) [Compound 91, (R)/(S)-2-(methylamino)-N-(2-(4′-(trifluoromethoxy)-[1,1′-biphenyl]-4-yl)ethyl)hexanamide hydrochloride] | 2~8 μg/mL | 4~16 μg/mL | 4~16 μg/mL | – | 4~16 μg/mL | 8 µg/mL | <4 µg/mL | 8 µg/mL | 16 µg/mL | <4 µg/mL | <4 µg/mL | 8 µg/mL | <4 µg/mL | <4 µg/mL | 16 µg/mL | 16 µg/mL
